This note sets out measurements from ChEMBL document CHEMBL1201862, “PubChem BioAssay data set” (2004).

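Interpolation was linear, between the two tested concentrations surrounding the appropriate level; five concentrations were tested over 48 hours in 96-well plates. The concentration for 50% growth inhibition is given as GI50.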 The source made the active and inactive calls. Rule as the data show it: active = GI50 up to about 1.1 µM and inactive = higher.

Some test systems named below: SR; RXF 393; NCI/ADR-RES; HCT-116; K562; OVCAR-8; MDA-MB-435; NCI-H522; 786-0; SW-620; SN12C; HCT-15; HL-60; MDA-N; T47D; TK-10; Malme-3M; OVCAR-3; RPMI-8226; SF-295.
Experiment in all cases: growth of human tumour cells (NCI), 48 h

`Oc1c(Cl)ccc2cccnc12`: the GI50 with SR is 1.88 µM (inactive); in the test on RXF 393, 1.83 µM (inactive); in the test with NCI/ADR-RES, 0.432 µM (active); in the test on HCT-116, 1.79 µM (inactive); in the test on K562, 1.32 µM (inactive); in the test with OVCAR-8, 2.63 µM (inactive). In addition, the GI50 in the test with MDA-MB-435 was 10.1 µM (inactive); in the test with NCI-H522, 1.63 µM (inactive); in the test on 786-0 it was 6.18 µM (inactive); in the test with SW-620, 2.53 µM (inactive); with SN12C, 4.58 µM (inactive); with HCT-15 it was 0.927 µM. Further, the GI50 was 0.28 µM (active) in the test with HL-60; 16.6 µM (inactive) with MDA-N; 1.2 µM (inactive) with T47D; 4.36 µM (inactive) with TK-10; 8.89 µM (inactive) in the test on Malme-3M; 2.09 µM (inactive) in the test with OVCAR-3. Further, the GI50 with RPMI-8226 was 2.71 µM (inactive); in the test with SF-295, 2.79 µM (inactive).
As for `COc1ccc(/C=C/c2ccnc3ccccc23)cc1OC`, the GI50 was 25.5 µM (inactive) in the test on SR; 13.1 µM (inactive) in the test with RXF 393; 14 µM (inactive) in the test on NCI/ADR-RES; 12.6 µM (inactive) with HCT-116; 9.79 µM (inactive) in the test on K562; 15.1 µM (inactive) in the test with MDA-MB-435. In addition, the GI50 with NCI-H522 was 5.65 µM (inactive); in the test on 786-0 it was 44.3 µM (inactive); in the test on SW-620, 15.7 µM (inactive); with SN12C, 17.9 µM (inactive); in the test on HCT-15, 15.2 µM; in the test on HL-60, 11.3 µM (inactive). For the same molecule, the GI50 was 14.1 µM (inactive) in the test with MDA-N; 11.7 µM (inactive) in the test on T47D; 15.6 µM (inactive) in the test with TK-10; 16.9 µM (inactive) in the test on Malme-3M; 12.5 µM (inactive) in the test on OVCAR-3; 28.1 µM (inactive) in the test with RPMI-8226. In the test on SF-295, the GI50 was 13.8 µM (inactive).
Take `COc1ccc2c(c1O)[C@@]13CCCC=C1[C@@H](C2)N(C)CC3`: the GI50 was 25.6 µM (inactive) with SR; > 100 µM (inactive) in the test with RXF 393; 33 µM (inactive) in the test with NCI/ADR-RES; 36.6 µM (inactive) in the test with HCT-116; 21.3 µM (inactive) in the test with K562; > 100 µM (inactive) with OVCAR-8. For the same molecule, the GI50 in the test on MDA-MB-435 was 36.6 µM (inactive); in the test with NCI-H522, 25.2 µM (inactive); with 786-0 it was > 100 µM (inactive); in the test with SW-620 it was 69.3 µM (inactive); in the test with SN12C, > 100 µM (inactive); in the test on HCT-15, greater than 100 µM. The GI50 with HL-60 is 21.4 µM (inactive); with MDA-N, 61.5 µM (inactive); in the test on T47D, 90.2 µM (inactive); in the test on TK-10, > 100 µM (inactive); in the test with Malme-3M, 1.75 µM (inactive); in the test with OVCAR-3, 50.7 µM (inactive). Also, the figures for the GI50 in the test on RPMI-8226 and in the test on SF-295 were 29.3 µM (inactive) and > 100 µM (inactive), respectively.
For the molecule `CC(C)(C)c1cc(/C=C(\C#N)C(=O)NCCO)cc(C(C)(C)C)c1O`, the GI50 is 17.5 µM (inactive) in the test with SR; 27.4 µM (inactive) in the test with RXF 393; 23 µM (inactive) in the test on NCI/ADR-RES; 16.9 µM (inactive) with HCT-116; 24 µM (inactive) with K562; 38.6 µM (inactive) in the test on OVCAR-8. Further, the GI50 was 21.1 µM (inactive) with MDA-MB-435; 16.5 µM (inactive) with NCI-H522; 21.8 µM (inactive) in the test with 786-0; 28.8 µM (inactive) in the test on SW-620; 19 µM (inactive) in the test on SN12C; 20.7 µM with HCT-15. For the same molecule, the GI50 in the test on HL-60 is 15.7 µM (inactive); in the test with MDA-N, 18.7 µM (inactive); in the test on T47D it was 20.1 µM (inactive); in the test with TK-10, 22.3 µM (inactive); with Malme-3M, 17.3 µM (inactive); in the test with OVCAR-3, 14.6 µM (inactive). In addition, the GI50 was 12.3 µM (inactive) in the test on RPMI-8226 and 16.9 µM (inactive) with SF-295.
With `CCOC(=O)c1ccc(C(=O)/C(C#N)=C2\CCCN2C)[nH]1`, the GI50 in the test on SR, with RXF 393, in the test on NCI/ADR-RES, in the test with HCT-116, with K562 and with OVCAR-8 was > 100 µM (inactive) in each case. The GI50 in the test on MDA-MB-435 was > 100 µM (inactive); in the test on NCI-H522, > 100 µM (inactive); with 786-0, > 100 µM (inactive); in the test with SW-620, > 100 µM (inactive); with SN12C, > 100 µM (inactive); in the test on HCT-15, greater than 100 µM. Also, the GI50 with HL-60, in the test with MDA-N, in the test with T47D, with TK-10, in the test with Malme-3M and with OVCAR-3 was > 100 µM (inactive) in each case. Moreover, the GI50 in the test with RPMI-8226 and with SF-295 was > 100 µM (inactive) each time.
For the molecule `O=C(CCCN1CCc2[nH]c3cc(F)ccc3c2C1)c1ccc(F)cc1`, the GI50 in the test with SR was 8.49 µM (inactive); in the test on RXF 393, 14.4 µM (inactive); with NCI/ADR-RES, 14.2 µM (inactive); with HCT-116 it was 11.8 µM (inactive); with K562, 5.71 µM (inactive); in the test with OVCAR-8 it was 15.1 µM (inactive). In addition, the GI50 with MDA-MB-435 was 12.9 µM (inactive); with NCI-H522 it was 20.7 µM (inactive); in the test on 786-0 it was 13.5 µM (inactive); in the test with SW-620 it was > 100 µM (inactive); in the test with SN12C, 14.3 µM (inactive); in the test with HCT-15, 16.8 µM. In addition, the GI50 in the test with HL-60 is 11.1 µM (inactive); in the test with MDA-N it was 15.7 µM (inactive); in the test on T47D, 18.9 µM (inactive); in the test with TK-10 it was 12.4 µM (inactive); with Malme-3M it was 12.6 µM (inactive); in the test with OVCAR-3, 14.2 µM (inactive). Besides, the GI50 is 10 µM (inactive) in the test on RPMI-8226 and 17.4 µM (inactive) in the test with SF-295.
On to `CC(CC(=O)O)C(C(=O)O)C(=O)O` (centres undefined), for which the GI50 in the test on SR, with RXF 393, with NCI/ADR-RES, in the test with HCT-116, in the test on K562 and in the test with OVCAR-8 was > 100 µM (inactive) in each case. For the same molecule, the GI50 with MDA-MB-435 was > 100 µM (inactive); in the test on NCI-H522, > 100 µM (inactive); in the test on 786-0, > 100 µM (inactive); in the test with SW-620, > 100 µM (inactive); in the test with SN12C, > 100 µM (inactive); in the test with HCT-15, greater than 100 µM. For the same molecule, the GI50 in the test with HL-60, in the test with MDA-N, in the test on T47D, in the test with TK-10, in the test with Malme-3M and in the test on OVCAR-3 was > 100 µM (inactive) in each case. The GI50 with RPMI-8226 and with SF-295 was > 100 µM (inactive) each time.
As for `O=Cc1cc2c(s1)C(=O)c1sccc1C2=O`, the GI50 is 0.303 µM (active) in the test on SR; 0.337 µM (active) in the test on RXF 393; 0.188 µM (active) in the test with NCI/ADR-RES; 0.256 µM (active) with HCT-116; 0.541 µM (active) with K562; 0.338 µM (active) in the test on OVCAR-8. The GI50 with MDA-MB-435 was 0.0187 µM (active); in the test on NCI-H522 it was 0.785 µM (active); in the test on 786-0, 1.03 µM (active); with SW-620, 0.257 µM (active); in the test with SN12C, 0.35 µM (active); in the test with HCT-15 it was 0.381 µM. The GI50 in the test with HL-60 was 0.863 µM (active); with MDA-N, 0.0484 µM (active); in the test with T47D, 2.28 µM (inactive); with TK-10, 1.92 µM (inactive); in the test on Malme-3M, 0.368 µM (active); in the test with OVCAR-3 it was 0.222 µM (active). Besides, the GI50 was 0.309 µM (active) in the test on RPMI-8226 and 0.169 µM (active) in the test with SF-295.
In the case of `CCOC(=O)C(Cc1ccc(N(CCCl)CCCl)cc1)NC(=O)C(Cc1ccccc1)NC=O` (centres undefined), the GI50 was 0.00811 µM (active) in the test with SR; 0.0614 µM (active) in the test with RXF 393; 0.338 µM (active) in the test with NCI/ADR-RES; 0.286 µM (active) in the test with HCT-116; 0.188 µM (active) in the test on K562; 0.258 µM (active) in the test with OVCAR-8. In addition, the GI50 in the test with MDA-MB-435 is 0.263 µM (active); in the test on NCI-H522 it was 0.117 µM (active); in the test with 786-0, 0.116 µM (active); with SW-620 it was 0.184 µM (active); in the test on SN12C it was 0.156 µM (active); with HCT-15, 0.29 µM. Also, the GI50 in the test on HL-60 was 0.0638 µM (active); in the test on MDA-N, 0.24 µM (active); with T47D, 0.092 µM (active); in the test on TK-10, 0.157 µM (active); in the test with Malme-3M, 0.109 µM (active); in the test on OVCAR-3 it was 0.147 µM (active). Also, the results for the GI50 with RPMI-8226 and in the test on SF-295 were 0.187 µM (active) and 0.257 µM (active), respectively.
Consider `Cc1sc2ncnc(NCCc3ccccc3)c2c1C`, for which the GI50 in the test with SR was 0.579 µM (active); in the test with RXF 393, 12.3 µM (inactive); in the test with NCI/ADR-RES it was 6.22 µM (inactive); with HCT-116, 6.04 µM (inactive); in the test with K562 it was 2 µM (inactive); in the test with OVCAR-8, 11.8 µM (inactive). Moreover, the GI50 in the test on MDA-MB-435 is 13.7 µM (inactive); in the test with NCI-H522, 8.59 µM (inactive); in the test with 786-0 it was 16 µM (inactive); in the test with SW-620 it was 25.5 µM (inactive); in the test with SN12C, 10.6 µM (inactive); in the test with HCT-15, 21.5 µM. Also, the GI50 in the test on HL-60 is 9.02 µM (inactive); in the test with MDA-N it was 10.1 µM (inactive); with T47D, 2.29 µM (inactive); in the test on TK-10, 11.4 µM (inactive); in the test on Malme-3M it was 17.5 µM (inactive); in the test on OVCAR-3 it was 14.2 µM (inactive). Also, the GI50 in the test on RPMI-8226 is 10.2 µM (inactive); in the test on SF-295 it was 4.78 µM (inactive).
